Data on 35 compounds can be found in patent US11286268B1, “EIF4E-inhibiting compounds and methods” (EFFECTOR THERAPEUTICS, INC., priority 2019, dated 2022).

In this assay the target is recombinant eIF4E (Homo sapiens (Human), UniProt P06730). The experiment in a line: Fluorescence polarization competition assay for eIF4E binding potency. Summed up:
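Competition of test compound against 20 nM EDA-m^7GDP-ATTO-550 for 75 nM recombinant eIF4E, pre-incubated 5 min, in 20 mM Tris pH 7.5, 100 mM NaCl, 1 mM DTT, 0.02% Tween-20, 1% DMSO. Equilibrated 30 min at room temperature, dark; fluorescence polarization read. IC50 from 8-point, 3-fold dilution series.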

The mark [1] stands for this setting: inhibition of eIF4E/EDA-m7GDP-ATTO-550 binding, calculated IC50 values, Table 4B, read-out: IC50.
Where [2] appears, read: fluorescence polarization competition, 75 nM recombinant eIF4E, 20 nM EDA-m7GDP-ATTO-550, IC50 class, read-out: elF4E FP.
Where [3] appears, read: inhibition of eIF4E/EDA-m7GDP-ATTO-550 binding by 50%, Table 4B calculated values, read-out: IC50.

Like-named read-outs stand apart in the source and are kept apart here.

recombinant eIF4E, sequence (P06730 whole entry): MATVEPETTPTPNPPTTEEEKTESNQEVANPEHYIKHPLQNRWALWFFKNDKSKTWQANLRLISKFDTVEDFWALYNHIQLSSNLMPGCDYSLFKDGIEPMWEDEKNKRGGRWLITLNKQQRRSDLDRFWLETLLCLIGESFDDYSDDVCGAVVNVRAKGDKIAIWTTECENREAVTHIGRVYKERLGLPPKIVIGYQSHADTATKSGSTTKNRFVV

Regarding `Cc1nc2cnc(N(C)C3CCN(CC(C)(C)C(F)(F)F)CC3)c(C#N)c2c(=O)n1CC#Cc1ccc(Cl)cc1-c1ccnc2c(C(=O)O)csc12` [compound 1586], the IC50 under setting [1] was 31.8 nM.

Take `Cc1nc2cnc(N(C)C3CCN(C4(C(F)F)CC4)CC3)c(C#N)c2c(=O)n1CC#Cc1ccc(Cl)cc1-c1ccnc2c(C(=O)O)csc12` [compound 1522]: under setting [1], the IC50 is 17.7 nM.

Regarding `Cc1nc2cnc(N3CCN(CCC(F)(F)F)CC3)c(C#N)c2c(=O)n1CC#Cc1ccc(Cl)cc1-c1ccnc2c(C(=O)O)csc12` [compound 1160], the IC50 reads like this: under setting [2], less than 50 nM; under setting [3], 17.2 nM.

For `Cc1nc2cnc(CCN(C)CC(F)F)c(C#N)c2c(=O)n1CCOc1ccc(Cl)cc1-c1ccnc2c(C(=O)O)csc12` [compound 1485], the IC50 under setting [1] is 22.9 nM.

`Cc1nc2cnc(N3CCC(O)C3)c(C#N)c2c(=O)n1CCOc1ccc(Cl)cc1-c1ccnc2ccsc12` (stereo not shown) [compound 1258]: the IC50 under setting [1] was 61.5 nM.

For `Cc1cc(-c2cc(Cl)ccc2OCCn2c(C)nc3cc(C(F)(F)F)c(-c4cnc(Cl)cc4F)c(C#N)c3c2=O)c2scc(C(=O)O)c2n1` [compound 1384], the IC50 under setting [1] is 6.86 nM.

For the compound `Cc1nc2cnc(N(C)C3CCN(C4(C#N)CC4)CC3)c(C#N)c2c(=O)n1CC#Cc1ccc(Cl)cc1-c1ccnc2c(C(=O)O)csc12` [compound 1494], the IC50 under setting [1] is 24.7 nM.

As for `Cc1nc2cnc(N3CCN(CCC(F)(F)F)CC3)c(C#N)c2c(=O)n1CCOc1ccc(Cl)cc1-c1ccnc2c(C(=O)O)csc12` [compound 1308], under setting [1], the IC50 is 41.5 nM.

With `Cc1nc2cc(C(F)(F)F)cc(C(F)F)c2c(=O)n1CCOc1ccc(Cl)cc1-c1ccnc2c(C(=O)O)csc12` [compound 220], the IC50 is 50 to 1000 nM under setting [2] and 213 nM under setting [3].

As to `Cc1nc2c(C(F)(F)F)ccc(C#N)c2c(=O)n1CCOc1ccc(Cl)cc1-c1cccc(C(=O)O)c1` [compound 142], the IC50 was 50 to 1000 nM under setting [2] and 152 nM under setting [3].

As to `CC#Cc1c(C(=O)O)cccc1-c1cc(Cl)ccc1OCCn1cnc2cnc(C#N)cc2c1=O` [compound 24], the IC50 under setting [2] was in the range of 50 to 1000 nM and the IC50 under setting [3] is 184 nM.

On to `COc1cc2nc(C)n(CCOc3ccc(Cl)cc3-c3cc(C)nc4c(C(=O)O)c(C)sc34)c(=O)c2c(C#N)c1N1CCN(C)CC1` [compound 1208], for which the IC50 under setting [2] is less than 50 nM and the IC50 under setting [1] was 48.9 nM.

As to `CCN(c1ncc2nc(C)n(CC#Cc3ccc(Cl)cc3-c3ccnc4c(C(=O)NS(=O)(=O)c5cccnc5)csc34)c(=O)c2c1C#N)C1CCN(CC(F)(F)C(F)F)CC1` [compound 1709], the IC50 under setting [1] is 28.4 nM.

Turning to `Cc1cc(-c2cc(Cl)ccc2OCCn2c(C)nc3cc(C(F)(F)F)c(CN(C)C)c(C#N)c3c2=O)c2scc(C(=O)NS(C)(=O)=O)c2n1` [compound 568], the IC50 under setting [2] is less than 50 nM and the IC50 under setting [3] was 14.1 nM.

Consider `Cc1cc(-c2cc(Cl)ccc2OCCn2c(C)nc3c(C)ncc(C#N)c3c2=O)c2scc(C(=O)NS(C)(=O)=O)c2n1` [compound 731], for which the IC50 was less than 50 nM under setting [2] and 5.97 nM under setting [3].

For the compound `Cc1cc(-c2cc(Cl)ccc2OCCn2c(C)nc3cc(C(F)(F)F)c(CN(C)C)c(C#N)c3c2=O)c2sc(C)c(C(=O)O)c2n1` [compound 670], the IC50 is less than 50 nM under setting [2] and 18 nM under setting [3].

For the compound `Cc1nc2cncc(SCCN(C)C)c2c(=O)n1CCOc1ccc(Cl)cc1-c1ccnc2c(C(=O)O)csc12` [compound 1331], the IC50 under setting [1] is 91.8 nM.

Consider `COc1cc(-c2cc(Cl)ccc2OCCn2c(C)nc3cc(C(F)(F)F)c(CN4CCN(C)CC4)c(C#N)c3c2=O)c2scc(C(=O)O)c2n1` [compound 638], for which the IC50 under setting [2] was less than 50 nM and the IC50 under setting [3] was 4.46 nM.

`CCc1cc(-c2cc(Cl)ccc2OCCn2c(C)nc3c(N(C)C)nc(C4CC4)c(C#N)c3c2=O)c2scc(C(=O)O)c2n1` [compound 1199]: the IC50 runs as follows: under setting [2], less than 50 nM; under setting [1], 18.2 nM.

For `Cc1nc2cnc(N(C)C3CCN([C@H]4C[C@H](OC(F)F)C4)CC3)c(C#N)c2c(=O)n1CC#Cc1ccc(Cl)cc1-c1ccnc2c(C(=O)NS(=O)(=O)c3cccnc3)csc12` [compound 1765], the IC50 under setting [1] was 12.3 nM.

Turning to `Cc1cc(-c2cc(Cl)ccc2OCCn2c(C)nc3cnc(NCC(F)(F)F)c(C#N)c3c2=O)c2scc(C(=O)O)c2n1` [compound 972], the IC50 is, setting by setting: under setting [2], less than 50 nM; under setting [3], 9.77 nM.

Turning to `Cc1nc2cnc(N3CC4(C3)CN(C3CC3)C4)c(C#N)c2c(=O)n1CCOc1ccc(Cl)cc1-c1ccnc2c(C(=O)O)csc12` [compound 1314], under setting [1], the IC50 was 18.1 nM.

`Cc1cc(-c2cc(Cl)ccc2OCCn2c(C)nc3cnc(-c4cc(Cl)ccc4Cl)c(C#N)c3c2=O)c2scc(C(=O)O)c2n1` [compound 954]: the IC50 runs as follows: under setting [2], less than 50 nM; under setting [3], 8.29 nM.

With `Cc1cc(-c2cc(Cl)ccc2OCCn2c(C)nc3cc(C(F)(F)F)c(N4CCN(CC(F)F)CC4)c(C#N)c3c2=O)c2scc(C(=O)O)c2n1` [compound 428], the IC50 was less than 50 nM under setting [2] and 7.45 nM under setting [3].

On to `Cc1nc2cc(C(F)(F)F)c(CCN(C)C)cc2c(=O)n1CCOc1ccc(Cl)cc1-c1ccnc2c(C(=O)O)csc12` [compound 858], for which the IC50 was less than 50 nM under setting [2] and 7.28 nM under setting [3].

Turning to `Cc1cc(-c2cc(Cl)ccc2OCCn2c(C)nc3cc(C(F)(F)F)c(-c4nccnc4C(F)(F)F)nc3c2=O)c2scc(C(=O)O)c2n1` [compound 990], the IC50 under setting [2] is less than 50 nM and the IC50 under setting [3] is 32.2 nM.

For the compound `COc1ccc(-c2cc(Cl)ccc2OCCn2c(C)nc3c(C)ncc(C#N)c3c2=O)c2scc(C(=O)O)c12` [compound 721], the IC50 is less than 50 nM under setting [2] and 20.6 nM under setting [3].

Regarding `Cc1cc(-c2cc(Cl)ccc2OCCn2c(C)nc3cc(C(F)(F)F)c(-c4cn(C)nc4C)c(C#N)c3c2=O)c2scc(C(=O)O)c2n1` [compound 1031], the IC50 was less than 50 nM under setting [2] and 11.6 nM under setting [3].

Take `Cc1cc(-c2cc(Cl)ccc2OCCn2c(C)nc3cc(Cl)c(N4C[C@@H](C)N(C)[C@@H](C)C4)c(C#N)c3c2=O)c2sc(C)c(C(=O)O)c2n1` [1090a]: the IC50 under setting [3] is 38.3 nM.

As to `Cc1nc2cc(C(F)(F)F)cc(C#N)c2c(=O)n1CCOc1ccc(Cl)cc1-c1cccc2c(C(=O)O)c[nH]c12` [compound 322], the IC50 is 50 to 1000 nM under setting [2] and 116 nM under setting [3].

Regarding `Cc1nc2c(S(=O)(=O)N(C)C)ccc(C#N)c2c(=O)n1CCOc1ccc(Cl)cc1-c1ccnc2c(C(=O)O)csc12` [compound 237], the IC50 by setting is: under setting [2], 50 to 1000 nM; under setting [3], 54.8 nM.

`Cc1ncc(C#N)c2c(=O)n(CCOc3ccc(Cl)cc3-c3ccnc4c(C(=O)O)csc34)c(C)nc12` [compound 674]: the IC50 under setting [2] is less than 50 nM.

With `Cc1nc2cnc(N3CCN([C@H]4C[C@@H]4C(F)(F)F)CC3)c(C#N)c2c(=O)n1CCOc1ccc(Cl)cc1-c1ccnc2c(C(=O)O)csc12` [compound 1642], the IC50 under setting [1] was 24.5 nM.

For `Cc1cc(-c2cc(Cl)ccc2OCCn2c(C)nc3cc(Cl)c(N(C)C)c(C#N)c3c2=O)c2scc(C(=O)O)c2n1` [compound 696], the IC50 by setting is: under setting [2], less than 50 nM; under setting [3], 8.94 nM.

For `CCN(c1ncc2nc(C)n(CC#Cc3ccc(Cl)cc3-c3ccnc4c(C(=O)NS(=O)(=O)c5ccncc5)csc34)c(=O)c2c1C#N)C1CCN([C@H]2C[C@H](OC(F)F)C2)CC1` [compound 1769], the IC50 under setting [1] is 16.4 nM.
